This note sets out measurements from US6046218A, “Pyridine derivative and medicament containing the same as an effective ingredient” (SS Pharmaceutical Co., Ltd., priority 1996, dated 2000).

One experiment deals with IgE production. Briefly: Test 4: inhibition of IgE production by spleen cells of orally treated sensitized mice. The conditions noted are these: Mus musculus, po, 100 mg/kg orally once a day, Day 1 to Day 10, DNP-BSA 5 μg/ml, 24 hours, read-out: Inhibition rate of IgE production. It is filed as in vivo, Balb/c mouse. The method, then:
(§1) Test 4: Test on the inhibition of IgE production
(§2) To a Balb/c mouse, the DNP-labeled ascaris antigen (5 μg) and Alum (1 mg) were intraperitoneally administered on Day 1 and Day 6 to sensitize the mouse with the antibody. From Day 1 to Day 10, a medicament was orally administered at a dose of 100 mg/kg once a day. On Day 11, the mouse was subjected to splenectomy and the spleen so obtained was untangled into its cells. To 5×10^7 cells/ml of the spleen cells so obtained, DNP-BSA (5 μg/ml) was added, followed by incubation at 37° C. for 24 hours. After incubation, 100 μl of the supernatant were collected and subjected to the measurement an IgE measuring kit (Yamasa Co., Ltd.). In order to determine IgG1, IgG2a and IgM, the absorbance of the incubated supernatant was measured by the EIA method and provided for comparison. The inhibition rate of IgE production was calculated according to the below-described formula. Inhibition rates of the IgG1, IgG2a and IgM production were similarly calculated, respectively. [formula]

The next experiment deals with IgG1 production. Briefly: Test 4 (comparison): inhibition of IgG1 production. It is filed as in vivo, Balb/c mouse. The conditions noted are these: 100 mg/kg orally once a day; for inhibition at 100 mg/kg: Mus musculus, po, Day 1 to Day 10, spleen cells, DNP-BSA 5 μg/ml, 24 hours, read-out: Inhibition rate of IgG1 production; for effects on the production of IgG1: in words. The protocol:
as §1, §2

For a further experiment, the system named is IgM production. Briefly: Test 4 (comparison): inhibition of IgM production. It is filed as in vivo, Balb/c mouse. The conditions noted are these: 100 mg/kg orally once a day; for inhibition at 100 mg/kg: Mus musculus, po, Day 1 to Day 10, spleen cells, DNP-BSA 5 μg/ml, 24 hours, read-out: Inhibition rate of IgM production; for effects on the production of IgM: in words. The method, then:
as §1, §2

The subject of the next experiment is IgG2a production. Briefly: Test 4 (comparison): inhibition of IgG2a production. It is filed as in vivo, Balb/c mouse. Conditions: 100 mg/kg orally once a day; for inhibition at 100 mg/kg: Mus musculus, po, Day 1 to Day 10, spleen cells, DNP-BSA 5 μg/ml, 24 hours, read-out: Inhibition rate of IgG2a production; for effects on the production of IgG2a: in words. The protocol:
as §1, §2

Another experiment relates to IL-5 production. In words: Test 3: inhibition of IL-5 production in human PBMC stimulated with ConA. Conditions: 10^-6 M, 10 μg/ml ConA, 48 hours, read-out: Inhibition rate of IL-5 production. It is filed as cell-based. In short, it runs like this: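 Human PBMC from a normal volunteer, 1×10^6 cells/ml in AIM-V, stimulated with 10 μg/ml ConA alongside compound and incubated 48 h at 37 °C, 5% CO2. Supernatant IL-5 quantified by EIA; inhibition rate calculated from a formula.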

A further experiment deals with IL-4 production. Briefly: Test 2: inhibition of IL-4 production in human T-cell strain ATL-16T(-) stimulated with PMA (Bio Source EIA). It is filed as cell-based. The conditions noted are these: ATL-16T(-) 5×10^5 cells/0.5 ml/well, 20 nM PMA, 48 hours, read-out: Inhibition rate of IL-4 production; for inhibition at 10 µM: 10^-5 M; for inhibition at 1 µM: 10^-6 M; for inhibition at 0.1 µM: 10^-7 M; for inhibition at 0.01 µM: 10^-8 M. The protocol:
Test 2: Test on the inhibition of IL-4 production
Into individual wells of a 48-well microplate, the human T-cell strain ATL-16T(-) was poured at a concentration of 5×10^5 cells/0.5 ml/well (n=3), followed by the addition of a stimulator (20 nM of PMA) and a medicament at the same time. The resulting mixture was incubated in 5% CO2 at 37° C. for 48 hours. After incubation, 50 μl of the supernatant were collected and subjected to measurement by a human IL-4 EIA kit (BIO SOURCE, INC.). The inhibition rate was calculated according to the following formula. [formula]

Counter-ions that a name gives are not always drawn.

As to `CCOC(=O)CCCCCCOc1cc(/C=C/C(=O)c2ccccc2OC)ncc1OC` [Ex. 96, Ethyl 7-[5-methoxy-2-(3-(2-methoxyphenyl)-3-oxo-1-propenyl)-4-pyridyloxy]heptanoate hydrochloride], the inhibition (in general, the relative decrease from the control value, in per cent) at 100 mg/kg in the experiment on IgE production is 63.2%. Also, in the experiment on IgG1 production, the inhibition at 100 mg/kg came out at 5% and the “effects on the production of IgG1” value is “No effects were observed”. Besides, in the experiment with IgM production, the inhibition at 100 mg/kg was 9.6% and the “effects on the production of IgM” value is given as “No effects were observed”. Also, in the experiment on IgG2a production, the inhibition at 100 mg/kg stood at 8.3% and the “effects on the production of IgG2a” value is recorded as “No effects were observed”. In the experiment with IL-5 production, the inhibition at 1 µM was found to be 79.8%. Moreover, in the experiment with IL-4 production, the inhibition at 10 µM is 102%, the inhibition at 1 µM came out at 76.2%, the inhibition at 0.1 µM was 78.6% and the inhibition at 0.01 µM stood at 78.2%.
`CCOC(=O)CCCCCOc1cc(/C=C/C(=O)c2ccc(OC)c(OC)c2)ncc1OC` [Ex. 90, Ethyl 6-[5-methoxy-2-(3-(3,4-dimethoxyphenyl)-3-oxo-1-propenyl)-4-pyridyloxy]hexanoate hydrochloride]: the inhibition at 100 mg/kg is 21.5% with IgE production, 2.7% in the experiment with IgG1 production, -10.3% in the experiment with IgM production and 7% with IgG2a production. In addition, the inhibition at 1 µM with IL-5 production was 75.6%; in the experiment on IL-4 production, 26.4%. Also, the inhibition at 10 µM in the experiment on IL-4 production amounted to 25.3%. In the experiment with IL-4 production, the inhibition at 0.1 µM turned out to be 28.6%. In addition, in the experiment on IL-4 production, the inhibition at 0.01 µM was 43.2%.
On to `CCOC(=O)CCCCCOc1cc(/C=C/C(=O)c2ccccc2OC)ncc1OC` [Ex. 94, Ethyl 6-[5-methoxy-2-(3-(2-methoxyphenyl)-3-oxo-1-propenyl)-4-pyridyloxy]hexanoate hydrochloride], for which the inhibition at 100 mg/kg with IgE production came out at 63.4%. In the experiment with IgG1 production, the inhibition at 100 mg/kg was 7% and the “effects on the production of IgG1” value is “No effects were observed”. Moreover, in the experiment on IgM production, the inhibition at 100 mg/kg is -1.6% and the “effects on the production of IgM” value is “No effects were observed”. In the experiment with IgG2a production, the inhibition at 100 mg/kg was determined as 2.8% and the “effects on the production of IgG2a” value was “No effects were observed”. Besides, in the experiment with IL-5 production, the inhibition at 1 µM stood at 95.2%. For the same molecule, in the experiment on IL-4 production, the inhibition at 10 µM came out at 74.4%, the inhibition at 1 µM is 70.4%, the inhibition at 0.1 µM turned out to be 66.5% and the inhibition at 0.01 µM was 62.3%.
`CCOC(=O)CCCCCOc1cc(/C=C/C(=O)c2ccc(OC)cc2OC)ncc1OC` [Ex. 92, Ethyl 6-[5-methoxy-2-(3-(2,4-dimethoxyphenyl)-3-oxo-1-propenyl)-4-pyridyloxy]hexanoate hydrochloride]: in the experiment on IgE production, the inhibition at 100 mg/kg was 61.2%. Further, in the experiment on IgG1 production, the inhibition at 100 mg/kg was -4.3% and the “effects on the production of IgG1” value was “No effects were observed”. Moreover, in the experiment with IgM production, the inhibition at 100 mg/kg is -8.3% and the “effects on the production of IgM” value is given as “No effects were observed”. In the experiment on IgG2a production, the inhibition at 100 mg/kg was -6% and the “effects on the production of IgG2a” value was “No effects were observed”. Besides, in the experiment on IL-5 production, the inhibition at 1 µM was 96.4%. In the experiment with IL-4 production, the inhibition at 10 µM turned out to be 54.2%, the inhibition at 1 µM was determined as 48.4%, the inhibition at 0.1 µM is 31% and the inhibition at 0.01 µM came to 25.3%.
As for `CCOC(=O)CCCCCOc1cc(/C=C/C(=O)c2cc(OC)ccc2OC)ncc1OC` [Ex. 88, Ethyl 6-[5-methoxy-2-(3-(2,5-dimethoxyphenyl)-3-oxo-1-propenyl)-4-pyridyloxy]hexanoate hydrochloride], the inhibition at 100 mg/kg with IgE production was 22.7%; with IgG1 production, -6.9%; in the experiment with IgM production, -4.2%; with IgG2a production, 8.6%. The values for the inhibition at 1 µM with IL-5 production and with IL-4 production were 61.6% and 74.4%, respectively. Besides, the inhibition at 10 µM in the experiment on IL-4 production was found to be 74.2%. For the same molecule, in the experiment with IL-4 production, the inhibition at 0.1 µM amounted to 71.7%. Further, in the experiment on IL-4 production, the inhibition at 0.01 µM was 68%.
On to `CCOC(=O)CCCCCCCOc1cc(/C=C/C(=O)c2ccccc2OC)ncc1OC` [Ex. 98, Ethyl 8-[5-methoxy-2-(3-(2-methoxyphenyl)-3-oxo-1-propenyl)-4-pyridyloxy]octanoate hydrochloride], for which the inhibition at 100 mg/kg in the experiment with IgE production stood at 50.1%. For the same molecule, in the experiment on IgG1 production, the inhibition at 100 mg/kg worked out at 5.4% and the “effects on the production of IgG1” value is listed as “No effects were observed”. Moreover, in the experiment on IgM production, the inhibition at 100 mg/kg is -2.6% and the “effects on the production of IgM” value was “No effects were observed”. Besides, in the experiment on IgG2a production, the inhibition at 100 mg/kg was -4.1% and the “effects on the production of IgG2a” value is listed as “No effects were observed”. In the experiment on IL-5 production, the inhibition at 1 µM stood at 96.8%. Besides, in the experiment with IL-4 production, the inhibition at 10 µM is 100%, the inhibition at 1 µM turned out to be 85.6%, the inhibition at 0.1 µM amounted to 76.1% and the inhibition at 0.01 µM amounted to 75.7%.
For the molecule `CCOC(=O)CCCCCOc1cc(/C=C/C(=O)C2CCCCC2)ncc1OC` [Ex. 77, Ethyl 6-[2-(3-cyclohexyl-3-oxo-1-propenyl)-5-methoxy-4-pyridyloxy]hexanoatehydrochloride], the inhibition at 100 mg/kg with IgE production was determined as 55.8%. Besides, in the experiment on IgG1 production, the inhibition at 100 mg/kg is -6.3% and the “effects on the production of IgG1” value is on record as “No effects were observed”. Also, in the experiment with IgM production, the inhibition at 100 mg/kg came out at 1.2% and the “effects on the production of IgM” value is listed as “No effects were observed”. Besides, in the experiment on IgG2a production, the inhibition at 100 mg/kg is -3.9% and the “effects on the production of IgG2a” value is “No effects were observed”. In addition, in the experiment with IL-5 production, the inhibition at 1 µM stood at 82%. In the experiment on IL-4 production, the inhibition at 10 µM turned out to be 68.6%, the inhibition at 1 µM is 66%, the inhibition at 0.1 µM is 65% and the inhibition at 0.01 µM was 64.5%.
Regarding `CCOC(=O)CCCOc1cc(/C=C/C(=O)c2cc(OC)ccc2OC)ncc1OC` [Ex. 87, Ethyl 4-[5-methoxy-2-(3-(2,5-dimethoxyphenyl)-3-oxo-1-propenyl)-4-pyridyloxy]butanoate hydrochloride], the inhibition at 100 mg/kg is 30.5% with IgE production, -3.4% in the experiment on IgG1 production, -0.1% in the experiment on IgM production and -8.1% in the experiment on IgG2a production. The results for the inhibition at 1 µM in the experiment on IL-5 production and in the experiment on IL-4 production were 90.2% and 73.4%, respectively. Further, the inhibition at 10 µM in the experiment with IL-4 production was found to be 78.3%. Besides, the inhibition at 0.1 µM in the experiment on IL-4 production stood at 72.2%. Further, in the experiment with IL-4 production, the inhibition at 0.01 µM turned out to be 69.3%.
For `COc1cnc(/C=C/C(=O)C2CCCCC2)cc1OCCCC(=O)O` [Ex. 106, 4-[2-(3-Cyclohexyl-3-oxo-1-propenyl)-5-methoxy-4-pyridyloxy]butanoic acid], the inhibition at 100 mg/kg is 28.8% in the experiment on IgE production, -0.8% in the experiment with IgG1 production, -7.3% in the experiment on IgM production and 2.1% in the experiment on IgG2a production. Also, the inhibition at 1 µM in the experiment on IL-5 production worked out at 78.7%; in the experiment with IL-4 production it was 31.7%. Also, the inhibition at 10 µM in the experiment on IL-4 production was 75.6%. In addition, the inhibition at 0.1 µM in the experiment on IL-4 production worked out at 9.4%. In the experiment on IL-4 production, the inhibition at 0.01 µM amounted to 8.6%.
`CCOC(=O)CCCOc1cc(/C=C/C(=O)c2c(OC)cccc2OC)ncc1OC` [Ex. 86, Ethyl 4-[5-methoxy-2-(3-(2,6-dimethoxyphenyl)-3-oxo-1-propenyl)-4-pyridyloxy]butanoate hydrochloride]: the inhibition at 100 mg/kg in the experiment with IgE production is 35.9%; in the experiment on IgG1 production, -1.1%; in the experiment with IgM production, -2.7%; with IgG2a production, 6.2%. For the same molecule, the inhibition at 1 µM in the experiment on IL-5 production stood at 71.9%; in the experiment on IL-4 production, 80.1%. Also, the inhibition at 10 µM in the experiment on IL-4 production was found to be 94.6%. Also, in the experiment with IL-4 production, the inhibition at 0.1 µM is 77.6%. The inhibition at 0.01 µM in the experiment with IL-4 production came out at 73.6%.
